According to patent US6946447B2, “MDM2-specific antisense oligonucleotides” (Hybridon, Inc., priority 1997, dated 2005):

Columns and labels:
[1] = tested on: human colon cancer DLD-1 xenografts; assay: Tumor growth in nude mice bearing DLD-1 xenografts; format: in vivo
DLD-1 cells = assay: DLD-1 cell growth by trypan blue viability staining; format: cell-based, human; conditions: 72-hr treatment, Lipofectin, read-out: IC50, inhibition of tumor cell growth
Source text: Chemicals and Reagents. Cell culture media and phosphate-buffered saline (PBS) were obtained from Sigma Chemical Co. (St. Louis, Mo.). Fetal bovine serum (FBS), antibodies against p53 and p21, Lipofectin, trypsin, penicillin-streptomycin, and trypan blue stain were purchased from GIBCO-BRL (Grand Island, N.Y.). The anti-human-MDM2 monoclonal antibody (Chen L. et al., Proc Natl Acad Sci USA, 95: 195-200, 1998; Chen L. et al., Mol. Med. 5: 21-34, 1999) was kindly provided by J. Chen (Moffitt Cancer Center, Tampa, Fla.). Chemotherapeutic agents adriamycin and 5-fluorouracil (5-FU) were obtained from Sigma. […] The MDM2, p53 and p21 levels in cultured cells were analyzed by using the methods described previously (earlier (Chen L. et al., Proc Natl Acad Sci USA, 95: 195-200, 1998; Chen L. et al., Mol. Med. 5: 21-34, 1999; Wang H. et al., Int J. Oncol. 15: 653-660, 1999). In brief, cell lysate containing identical amounts of total protein were fractionated by SDS-PAGE and transferred to Bio-Rad Trans-Blot nitrocellulose membranes (Bio-Rad Laboratories, Hercules, Calif., USA). The nitrocellulose membrane was then incubated with blocking buffer (PBS containing 0.1% Tween 20 and 5% non-fat milk) for 1 hr at room temperature and washed with the washing buffer (PBS containing 0. […]

## Oligo AS: 20-mer mixed-backbone phosphorothioate oligonucleotide with 2′-O-methyl ends, 5′UGACACCTGTTCTCACUCAC-3′; SEQ ID NO:47 (mixed phosphorothioate backbone with 2'-O-methyl ends, pattern not given here)
[1]
  xenograft pathology (tumor histology): histologically similar to control tumors except for modest increases in connective tissue with necrotic changes in tumor tissues
[1]; 1 mg/kg/day
  effect on in vivo tumor growth: minimal effects
[1]; daily ip doses 1, 10, 20 mg/kg
  effect on in vivo tumor growth: dose-dependent response
[1]; day 3
  Ratio (%) of % T:C with oligo to % T:C without oligo ([2]/[1] or [3]/[1]): 77%
[1]; day 3, oligo 20, HCPT 3, 5-FU 10 mg/kg/day
  Growth ratio % T:C: 77.3%
[1]; day 6
  Ratio (%) of % T:C with oligo to % T:C without oligo ([2]/[1] or [3]/[1]): 72%
[1]; day 6, oligo 20, HCPT 3, 5-FU 10 mg/kg/day
  Growth ratio % T:C: 72.0%
[1]; day 9
  Ratio (%) of % T:C with oligo to % T:C without oligo ([2]/[1] or [3]/[1]): 59%
[1]; day 9, oligo 20, HCPT 3, 5-FU 10 mg/kg/day
  Growth ratio % T:C: 59.2%
[1]; day 12
  Ratio (%) of % T:C with oligo to % T:C without oligo ([2]/[1] or [3]/[1]): 41%
[1]; day 12, oligo 20, HCPT 3, 5-FU 10 mg/kg/day
  Growth ratio % T:C: 41.2%
[1]; day 15
  Ratio (%) of % T:C with oligo to % T:C without oligo ([2]/[1] or [3]/[1]): 44%
[1]; day 15, oligo 20, HCPT 3, 5-FU 10 mg/kg/day
  Growth ratio % T:C: 44.4%
[1]; day 18
  Ratio (%) of % T:C with oligo to % T:C without oligo ([2]/[1] or [3]/[1]): 47%
[1]; day 18, oligo 20, HCPT 3, 5-FU 10 mg/kg/day
  Growth ratio % T:C: 46.7%
[1]; day 21
  Ratio (%) of % T:C with oligo to % T:C without oligo ([2]/[1] or [3]/[1]): 37%
[1]; day 21 (end of experiment), oligo 20, HCPT 3, 5-FU 10 mg/kg/day
  Growth ratio % T:C: 36.8%
DLD-1 cells
  IC50: 140 nM
